Data from the supplement of paper PMC10883282.

Legend:
Test in all cases: relative viability vs DMSO control (72 h) (fraction); higher = more viable cells
SK-ES-1 = system: SK-ES-1
Summary of the method: (§1)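 ATPLite readings, expressed as percent growth and averaged over up to triplicate wells, provided relative viability. Before reading, sarcoma cell lines seeded in 384-well plates to reach 80–90% confluence received 2.5 µl of serially diluted compound after 24 h, from source plates of 10 mM to 0.0002 mM. Plates were held 72 h at 37 °C, 5% CO2, with 0.1% DMSO as vehicle and a 5 µM positive control. The data were rescaled to 1 for full and 0 for none.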

G401 = system: G401
Summary of the method: as §1

A204 = system: A204
Summary of the method: as §1

SW684 = system: SW684
Summary of the method: as §1

MES-SA = system: MES-SA
Summary of the method: as §1

VA-ES-BJ = system: VA-ES-BJ
Summary of the method: as §1

SK-LMS-1 = system: SK-LMS-1
Summary of the method: as §1

RD = system: RD
Summary of the method: as §1

KHOS-NP = system: KHOS-NP
Summary of the method: as §1

SYO-1 = system: SYO-1
Summary of the method: as §1

HS729 = system: HS729
Summary of the method: as §1

SW872 = system: SW872
Summary of the method: as §1

COc1cc2ncnc(Nc3ccc(F)c(Cl)c3)c2cc1NC(=O)/C=C/CN1CCCCC1 [Dacomitinib]
Conditions | relative viability
A204, 0.00017 µM | 1.1
A204, 0.00051 µM | 1.09
A204, 0.00152 µM | 1.09
A204, 0.00457 µM | 1.08
A204, 0.01372 µM | 1.04
A204, 0.04115 µM | 1.07
A204, 0.1235 µM | 1.06
A204, 0.3704 µM | 0.978
A204, 1.111 µM | 0.751
A204, 3.333 µM | 0.327
A204, 10 µM | 0.0139
G401, 0.00017 µM | 1.02
G401, 0.00051 µM | 1.01
G401, 0.00152 µM | 1.03
G401, 0.00457 µM | 1.03
G401, 0.01372 µM | 1.01
G401, 0.04115 µM | 0.999
G401, 0.1235 µM | 1.02
G401, 0.3704 µM | 0.997
G401, 1.111 µM | 0.849
G401, 3.333 µM | 0.548
G401, 10 µM | 0.00623
HS729, 0.00017 µM | 1.08
HS729, 0.00051 µM | 1.04
HS729, 0.00152 µM | 1.03
HS729, 0.00457 µM | 1.04
HS729, 0.01372 µM | 1.01
HS729, 0.04115 µM | 0.975
HS729, 0.1235 µM | 1
HS729, 0.3704 µM | 0.894
HS729, 1.111 µM | 0.844
HS729, 3.333 µM | 0.737
HS729, 10 µM | 0.318
KHOS-NP, 0.00017 µM | 1.09
KHOS-NP, 0.00051 µM | 1.09
KHOS-NP, 0.00152 µM | 1.1
KHOS-NP, 0.00457 µM | 1.09
KHOS-NP, 0.01372 µM | 1.08
KHOS-NP, 0.04115 µM | 1.086
KHOS-NP, 0.1235 µM | 1.08
KHOS-NP, 0.3704 µM | 1.08
KHOS-NP, 1.111 µM | 1.08
KHOS-NP, 3.333 µM | 0.985
KHOS-NP, 10 µM | 0.0233
MES-SA, 0.00017 µM | 0.967
MES-SA, 0.00051 µM | 0.942
MES-SA, 0.00152 µM | 0.949
MES-SA, 0.00457 µM | 0.932
MES-SA, 0.01372 µM | 0.926
MES-SA, 0.04115 µM | 0.927
MES-SA, 0.1235 µM | 0.893
MES-SA, 0.3704 µM | 0.879
MES-SA, 1.111 µM | 0.731
MES-SA, 3.333 µM | 0.342
MES-SA, 10 µM | 0.00577
RD, 0.00017 µM | 1.103
RD, 0.00051 µM | 1.09
RD, 0.00152 µM | 1.12
RD, 0.00457 µM | 1.141
RD, 0.01372 µM | 1.13
RD, 0.04115 µM | 1.12
RD, 0.1235 µM | 1.12
RD, 0.3704 µM | 1.08
RD, 1.111 µM | 0.976
RD, 3.333 µM | 0.347
RD, 10 µM | 0.00617
SK-ES-1, 0.00017 µM | 1.04
SK-ES-1, 0.00051 µM | 1.1
SK-ES-1, 0.00152 µM | 1.04
SK-ES-1, 0.00457 µM | 1.07
SK-ES-1, 0.01372 µM | 1.07
SK-ES-1, 0.04115 µM | 1.04
SK-ES-1, 0.1235 µM | 1.02
SK-ES-1, 0.3704 µM | 1.01
SK-ES-1, 1.111 µM | 0.662
SK-ES-1, 3.333 µM | 0.184
SK-ES-1, 10 µM | 0.00867
SK-LMS-1, 0.00017 µM | 1.11
SK-LMS-1, 0.00051 µM | 1.11
SK-LMS-1, 0.00152 µM | 1.11
SK-LMS-1, 0.00457 µM | 1.13
SK-LMS-1, 0.01372 µM | 1.09
SK-LMS-1, 0.04115 µM | 1.08
SK-LMS-1, 0.1235 µM | 1.04
SK-LMS-1, 0.3704 µM | 1.03
SK-LMS-1, 1.111 µM | 0.916
SK-LMS-1, 3.333 µM | 0.701
SK-LMS-1, 10 µM | 0.013
SW684, 0.00017 µM | 1.22
SW684, 0.00051 µM | 1.23
SW684, 0.00152 µM | 1.208
SW684, 0.00457 µM | 1.18
SW684, 0.01372 µM | 1.18
SW684, 0.04115 µM | 1.15
SW684, 0.1235 µM | 1.22
SW684, 0.3704 µM | 1.08
SW684, 1.111 µM | 1.01
SW684, 3.333 µM | 0.599
SW684, 10 µM | -0.00213
SW872, 0.00017 µM | 1.1
SW872, 0.00051 µM | 1.12
SW872, 0.00152 µM | 1.1
SW872, 0.00457 µM | 1.11
SW872, 0.01372 µM | 1.11
SW872, 0.04115 µM | 1.08
SW872, 0.1235 µM | 1.05
SW872, 0.3704 µM | 1.03
SW872, 1.111 µM | 0.87
SW872, 3.333 µM | 0.508
SW872, 10 µM | 0.043
SYO-1, 0.00017 µM | 1.02
SYO-1, 0.00051 µM | 1.02
SYO-1, 0.00152 µM | 1.01
SYO-1, 0.00457 µM | 1.02
SYO-1, 0.01372 µM | 1
SYO-1, 0.04115 µM | 1.01
SYO-1, 0.1235 µM | 0.986
SYO-1, 0.3704 µM | 0.888
SYO-1, 1.111 µM | 0.824
SYO-1, 3.333 µM | 0.287
SYO-1, 10 µM | -0.0103
VA-ES-BJ, 0.00017 µM | 1.064
VA-ES-BJ, 0.00051 µM | 1.08
VA-ES-BJ, 0.00152 µM | 1.09
VA-ES-BJ, 0.00457 µM | 1.09
VA-ES-BJ, 0.01372 µM | 1.03
VA-ES-BJ, 0.04115 µM | 0.979
VA-ES-BJ, 0.1235 µM | 1.02
VA-ES-BJ, 0.3704 µM | 0.994
VA-ES-BJ, 1.111 µM | 0.914
VA-ES-BJ, 3.333 µM | 0.535
VA-ES-BJ, 10 µM | -0.0076
